The text below walks through data of patent US9616037B2, “Aryl-phenyl-sulfonamido-cycloalkyl compounds and their use” (PIMCO 2664 Limited, priority 2008, dated 2017).

By IC50 is commonly meant the point on the concentration scale where inhibition reaches its midpoint. The term Solubility denotes the dissolved amount per volume that the medium holds. The low end stands for a poorly soluble substance, the high end for a readily soluble substance.

One series concerns J774 macrophages. Description: Alamar Blue macrophage J774 viability assay. The series is classed as cell-based. The conditions noted are these: J774 cells, 72 hours with compound, Alamar Blue readout. Here is the method: (§1) Initial screening of candidate compounds was performed using in vitro assays to determine potency, metabolic stability and solubility in biologically relevant fluids. Potency was assessed using a viability assay based on the survival of the J774 macrophage cell line. Macrophages are closely related to osteoclasts and have been used previously as a model system for osteoclast survival (see, e.g., Luckman et al., 1998). Like osteoclasts, J774 macrophages are dependent on continued NFκB activation for survival, thereby providing a valuable screen for compounds with anti-inflammatory activity. Metabolic stability was measured by determining the rate of disappearance of compound in the presence of human liver microsomal preparations, as quantified by LC-MS/MS. Solubility was measured by equilibration of the compound in fasted state simulated intestinal fluid (FaSSIF) and quantified by HPLC.
In vitro potency as anti-inflammatory agents was determined for a number of APSAC compounds by incubation with J774 macrophages and subsequent determination of cell viability.
J774 cells were plated at 10^4 cells per well in 100 μL αMEM (α Modified Eagle Medium) in 96-well plates and grown overnight. The next day, test compounds were added to the cultures, and cultures were continued for another 72 hours. At the end of the culture period, cell survival was determined using an Alamar Blue assay as previously described (see, e.g., Nociari et al., 1998).
Alamar Blue is an oxidation-reduction sensitive indicator. The dye itself is in the oxidised state, which is blue and non-fluorescent. The dye can accept electrons from reducing species, such as NADPH and FADH, to form a reduced dye species, which is red and fluorescent. Thus the transformation from oxidised form to reduced form can be measured by fluorimetric or colourimetric means. For fluorescence measurements, 530-560 nm excitation and 590 nm emission wavelengths are typically used. For colourimetric measurements, absorbance at 570 nm (reduced form) and 600 nm (oxidised form) is typically measured. A simple calculation is performed to determine the relative quantities of the two species.
A high ratio of the reducing species, NADPH and FADH, to the corresponding oxidised species, NADP and FAD, is an indicator that cells are proliferating and viable. A low ratio indicates cells that are quiescent or non-viable.
Briefly, Alamar Blue (Biosource International) was added undiluted to the each well (1:10 v/v, 10 μL). The plate was incubated at 37° C. for 3-4 hours and the fluorescence was measured at 590 nm, with a 25 nm bandwidth. A high reading indicated cells with normal viability, and a low reading indicated cells that have been damaged and are no longer proliferating normally. The controls gave a high fluorescence reading, indicating a high number of live, healthy cells. A potent test compound gave a low fluorescence reading. The average results for each test compound (n=5) were expressed as a percent (%) of the average control value.
Addition of Compounds. All of the compounds studied were made up as 100 mM solutions in DMSO. These stock solutions were then diluted 1000-10000× in culture medium (αMEM). From these 100 μM or 10 μM solutions, convenient quantities (3-33 μL) were added directly to the wells so as to give the desired final compound concentration.
(In general: Resazurin is reduced to fluorescent resorufin, in cell work by metabolically active cells.)

Series [1] can be described thus: Thermodynamic aqueous solubility in fasted state simulated intestinal fluid (FaSSIF). The class given is physicochemical. The note with it: equilibrated at 25° C. for 24 hours, HPLC. Here is the method:
as §1, with “Macrophages are closely related to osteoclasts and have been used previously as a model system for osteoclast survival (see, e.g., Luckman et al., 1998).” left out
Thermodynamic aqueous solubility was measured by equilibration of a number of APSAC compounds, in the solid state, with fasted state simulated intestinal fluid (FaSSIF) and quantified by HPLC. Measurement of solubility in FaSSIF provides a valuable model for the prediction of drug dissolution following oral administration.
The pH was adjusted to 6.5 using 1 M NaOH solution.
0.6 mL of a solution containing 100 mg/mL lecithin in methylene chloride was added. The methylene chloride was eliminated under vacuum at about 40° C. The vacuum was drawn for 15 minutes at 250 mbar, followed by 15 minutes at 100 mbar. […] After cooling to room temperature, the solution was then adjusted to 100 mL with blank FaSSIF.
The suspension was equilibrated at 25° C. for 24 hours, and then the pH was measured. The suspension was then filtered through a glass fibre C filter into a 96-well plate. The filtrate was then diluted by a factor of 100. Quantification was made by HPLC with reference to a standard solution of compound at approximately 0.1 mg/mL in DMSO. Different volumes of the standard, diluted and undiluted sample solutions were injected. […] Analysis was performed on an Agilent HP1100 series system equipped with a diode array detector and using ChemStation software vB.02.01-SR1.

Converted amounts (≈) assume the structure as drawn. Like-named read-outs stand apart in the source and are kept apart here.

Turning to `O=S(=O)(N[C@H]1CC[C@H](NCC(F)(F)F)CC1)c1ccc(-c2ccc(F)cc2F)cc1` [ABD865, 2′,4′-Difluoro-N-(trans-4-(2,2,2-trifluoroethylamino)cyclohexyl)biphenyl-4-sulfonamide], the half-inhibitory concentration (IC50) in the series on J774 macrophages (Mus musculus, read-out: IC50) was 5.9 µM. In the case of `O=S(=O)(N[C@H]1CC[C@H](O)CC1)c1ccc(-c2ncc(Cl)cn2)cc1` [ABD837, 4-(5-Chloropyrimidin-2-yl)-N-(trans-4-hydroxycyclohexyl)benzenesulfonamide], the half-inhibitory concentration (IC50) with J774 macrophages (Mus musculus, read-out: IC50) came to 8.88 µM. Same read-out and setting: with `CCN(C)C1CCC(NS(=O)(=O)c2ccc(-c3ccc(F)cc3F)cc2)CC1` (centres unmarked) [ABD822, N-(4-(Ethyl(methyl)amino)cyclohexyl)-2′,4′-difluorobiphenyl-4-sulfonamide] the figure was 6.98 µM; with `O=S(=O)(N[C@H]1CC[C@H](O)CC1)c1ccc(-c2ccc(Cl)c(C(F)(F)F)c2)cc1` [ABD712, 4′-Chloro-N-(trans-4-hydroxycyclohexyl)-3′-(trifluoromethyl)biphenyl-4-sulfonamide], 5.46 µM. Turning to `CCN(CC)C1CCC(NS(=O)(=O)c2ccc(-c3ccc(F)cc3F)cc2)CC1` (centres unmarked) [ABD819, N-(4-(Diethylamino)cyclohexyl)-2′,4′-difluorobiphenyl-4-sulfonamide], the IC50 with J774 macrophages (Mus musculus, read-out: IC50) amounted to 2.4 µM. Still for that read-out and setting: with `O=S(=O)(N[C@H]1CC[C@H](O)CC1)c1ccc(-c2ncc(Cl)cc2Cl)cc1` [ABD836, 4-(3,5-Dichloropyridin-2-yl)-N-(trans-4-hydroxycyclohexyl) benzene sulfonamide] the figure was 0.28 µM; with `COc1ccc(-c2ccc(S(=O)(=O)N[C@H]3CC[C@H](O)CC3)cc2F)cc1` [ABD710, 2-Fluoro-N-(trans-4-hydroxycyclohexyl)-4′-methoxybiphenyl-4-sulfonamide], 1.98 µM; with `CN(C)C[C@H]1CC[C@@H](NS(=O)(=O)c2ccc(-c3ccc(F)cc3F)cc2)CC1` [ABD826, N-(cis-4-((Dimethylamino)methyl)cyclohexyl)-2′,4′-difluorobiphenyl-4-sulfonamide], 1 µM. Take `O=S(=O)(Nc1cccc(CO)c1)c1ccc(-c2ccc(F)cc2F)cc1` [ABD456, 2′,4′-difluoro-biphenyl-4-sulfonic acid (3-hydroxymethyl-phenyl)-amide, reference compound]: the half-maximal inhibitory concentration (IC50) with J774 macrophages (Mus musculus, read-out: IC50) was 0.25 µM. This compound also had a Solubility in series [1] of 40 µg/mL (≈ 107 µM). For `O=S(=O)(Nc1ccc(CO)cc1)c1ccc(-c2ccc(F)cc2F)cc1` [ABD466, 2′,4′-difluoro-biphenyl-4-sulfonic acid (4-hydroxymethyl-phenyl)-amide, reference compound], the half-maximal inhibitory concentration (IC50) with J774 macrophages (Mus musculus, read-out: IC50) was 3 µM. The same measure, in the same setting: the same measure for `O=S(=O)(N[C@H]1CC[C@@H](NCC(F)(F)F)CC1)c1ccc(-c2ccc(F)cc2F)cc1` [ABD864, 2′,4′-Difluoro-N-(cis-4-(2,2,2-trifluoroethylamino)cyclohexyl)biphenyl-4-sulfonamide]: more than 10 µM.

With `CCNC1CCC(NS(=O)(=O)c2ccc(-c3ccc(F)cc3F)cc2)CC1` (centres unmarked) [ABD817, N-(4-(Ethylamino)cyclohexyl)-2′,4′-difluorobiphenyl-4-sulfonamide], the IC50 with J774 macrophages (Mus musculus, read-out: IC50) is less than 1 µM. On to `O=S(=O)(N[C@H]1CC[C@H](O)CC1)c1ccc(-c2cncnc2)cc1` [ABD861, N-(trans-4-Hydroxycyclohexyl)-4-(pyrimidin-5-yl)benzenesulfonamide], for which the IC50 entry in the series on J774 macrophages is reported as “Inactive”. Regarding `O=S(=O)(NC1CCC(N2CCCC2)CC1)c1ccc(-c2ccc(F)cc2F)cc1` (centres unmarked) [ABD820, 2′,4′-Difluoro-N-(4-(pyrrolidin-1-yl)cyclohexyl)biphenyl-4-sulfonamide], the IC50 in the series with J774 macrophages (Mus musculus, read-out: IC50) came to 2.5 µM.

With `O=S(=O)(N[C@H]1CC[C@H](O)CC1)c1ccc(-c2ccc(OC(F)(F)F)cc2)c(F)c1` [ABD665, 2-Fluoro-N-(trans-4-hydroxycyclohexyl)-4′-(trifluoromethoxy)biphenyl-4-sulfonamide], the concentration for half-maximal inhibition (IC50) with J774 macrophages (Mus musculus, read-out: IC50) amounted to 4.9 µM. The same measure, in the same setting: with `CNC1CCC(NS(=O)(=O)c2ccc(-c3ccc(F)cc3F)cc2)CC1` (centres unmarked) [ABD816, 2′,4′-Difluoro-N-(4-(methylamino)cyclohexyl)biphenyl-4-sulfonamide] the figure was 0.8 µM; with `N#Cc1ccc(-c2ccc(S(=O)(=O)N[C@H]3CC[C@H](O)CC3)c(Cl)c2)cc1` [ABD732, 3-Chloro-4′-cyano-N-(trans-4-hydroxycyclohexyl)biphenyl-4-sulfonamide], 4.32 µM; with `Cc1cc(S(=O)(=O)N[C@H]2CC[C@H](O)CC2)ccc1-c1ccc(OC(F)(F)F)cc1` [ABD742, N-(trans-4-Hydroxycyclohexyl)-2-methyl-4′-(trifluoromethoxy)biphenyl-4-sulfonamide], 0.77 µM. Still for that read-out and setting: the same measure for `O=S(=O)(N[C@H]1CC[C@H](O)CC1)c1ccc(-c2ccc(F)cc2F)cc1Cl` [ABD705, 3-Chloro-2′,4′-difluoro-N-(trans-4-hydroxycyclohexyl)biphenyl-4-sulfonamide]: 0.83 µM. Same read-out and setting: with `O=S(=O)(N[C@H]1CC[C@H](O)CC1)c1ccc(-c2ccc(Cl)cc2Cl)cc1OC(F)(F)F` [ABD756, 2′,4′-Dichloro-N-(trans-4-hydroxycyclohexyl)-3-(trifluoromethoxy)biphenyl-4-sulfonamide] the figure was 2.18 µM. Turning to `Cc1cc(S(=O)(=O)N[C@H]2CC[C@H](O)CC2)ccc1-c1ccc(F)cc1F` [ABD735, 2′,4′-Difluoro-N-(trans-4-hydroxycyclohexyl)-2-methylbiphenyl-4-sulfonamide], the IC50 in the series with J774 macrophages (Mus musculus, read-out: IC50) came to 0.09 µM. The same measure, in the same setting: the same measure for `CNC[C@H]1CC[C@@H](NS(=O)(=O)c2ccc(-c3ccc(F)cc3F)cc2)CC1` [ABD824, 2′,4′-Difluoro-N-(cis-4-((methylamino)methyl)cyclohexyl)biphenyl-4-sulfonamide]: 7.2 µM. For `O=S(=O)(Nc1cccc(CO)c1)c1ccc(-c2ccc(Cl)cc2F)cc1` [ABD575, reference compound], in the series with J774 macrophages (read-out: IC50), the half-inhibitory concentration (IC50) is 0.4 µM. In addition, the Solubility in series [1] is 70 µg/mL (≈ 179 µM). Take `O=S(=O)(NC1CCC(N2CCOCC2)CC1)c1ccc(-c2ccc(F)cc2F)cc1` (centres unmarked) [ABD821, 2′,4′-Difluoro-N-(4-morpholinocyclohexyl)biphenyl-4-sulfonamide]: in the series with J774 macrophages (Mus musculus, read-out: IC50), the IC50 was more than 10 µM.
